Legend:
Assay in all cases: Test F preemergence
Settings in all cases: 21 days, scale 0 to 100
[1] = system: large (Lg) crabgrass; assay type: in vivo, Digitaria sanguinalis
From the text: (§1) Seeds of plant species selected from bermudagrass (Cynodon dactylon), surinam grass (Brachiaria decumbens), large (Lg) crabgrass (Digitaria sanguinalis), crabgrass, naked (naked crabgrass, Digitaria nuda), foxtail, green (green foxtail, Setaria viridis), johnsongrass (Sorghum halepense), kochia (Kochia scoparia), morningglory (pitted morningglory, Ipomoea lacunosa), nutsedge, purple (purple nutsedge, Cyperus rotundus), ragweed (common ragweed, Ambrosia elatior), mustard, black (black mustard, Brassica nigra), guineagrass (Panicum maximum), dallisgrass (Paspalum dilatatum), barnyardgrass (Echinochloa crus-galli), sandbur (southern sandbur, Cenchrus echinatus), sowthistle (common sowthistle, Sonchus oleraceous), Italian ryegrass (Lolium multiflorum), signalgrass (broadleaf signalgrass, Brachiaria platyphylla), dayflower (Virginia (VA) dayflower, Commelina virginica), bluegrass (annual bluegrass, Poa annua), quackgrass (Elytrigia repens), mallow (common mallow, Malva sylvestris), buckwheat, wild (wild buckwheat, Polygonum convolvulus), leafy spurge (Euphorbia esula), chickweed (common chickweed, Stellaria media), wild poinsettia (Euphorbia heterophylla), and pigweed (Amaranthus retroflexus) were planted into a blend of loam soil and sand and treated preemergence with test chemicals formulated in a non-phytotoxic solvent mixture which included a surfactant.
(§2) Treated plants and controls were maintained in a greenhouse for 21 days, after which time all species were compared to controls and visually evaluated. Plant response ratings, summarized in Table F, are based on a scale of 0 to 100 where 0 is no effect and 100 is complete control. A dash (-) response means no test result.

[2] = system: foxtail, green; assay type: in vivo, Setaria viridis
From the text: as §1, §2

[3] = system: signalgrass; assay type: in vivo, Brachiaria platyphylla
From the text: as §1, §2

[4] = system: dayflower; assay type: in vivo, Commelina virginica
From the text: as §1, §2

[5] = system: pigweed; assay type: in vivo, Amaranthus retroflexus
From the text: as §1, §2

Row | Structure (SMILES) | Plant response rating, Crabgrass, Large ([1]; 16 g ai/ha) | Plant response rating, Crabgrass, Large ([1]; 31 g ai/ha) | Plant response rating, Crabgrass, Large ([1]; 62 g ai/ha) | Plant response rating, Crabgrass, Large ([1]; 125 g ai/ha) | Plant response rating, Crabgrass, Large ([1]; 250 g ai/ha) | Plant response rating, Foxtail, Green ([2]; 16 g ai/ha) | Plant response rating, Foxtail, Green ([2]; 31 g ai/ha) | Plant response rating, Foxtail, Green ([2]; 62 g ai/ha) | Plant response rating, Foxtail, Green ([2]; 125 g ai/ha) | Plant response rating, Foxtail, Green ([2]; 250 g ai/ha) | Plant response rating, Signalgrass ([3]; 16 g ai/ha) | Plant response rating, Signalgrass ([3]; 31 g ai/ha) | Plant response rating, Signalgrass ([3]; 62 g ai/ha) | Plant response rating, Signalgrass ([3]; 125 g ai/ha) | Plant response rating, Signalgrass ([3]; 250 g ai/ha) | Plant response rating, Dayflower, VA ([4]; 16 g ai/ha) | Plant response rating, Dayflower, VA ([4]; 31 g ai/ha) | Plant response rating, Dayflower, VA ([4]; 62 g ai/ha) | Plant response rating, Dayflower, VA ([4]; 125 g ai/ha) | Plant response rating, Dayflower, VA ([4]; 250 g ai/ha) | other results
1 | N#Cc1cccc(Oc2ncc(Cl)cn2)c1-n1cc(OC(F)F)cn1 [Compound 97] | 98 | 100 | 100 | 100 | 100 | 75 | 100 | 100 | 100 | 100 | 25 | 90 | 85 | 100 | 100 | 35 | 80 | 98 | 98 | 100 | Plant response rating, Pigweed ([5]; 16 g ai/ha): 100; Plant response rating, Pigweed ([5]; 31 g ai/ha): 100; Plant response rating, Pigweed ([5]; 62 g ai/ha): 100; Plant response rating, Pigweed ([5]; 125 g ai/ha): 100; Plant response rating, Pigweed ([5]; 250 g ai/ha): 100
2 | N#Cc1cccc(Oc2ncc(F)cn2)c1-n1cc(C(F)(F)F)cn1 [Compound 79, 3-[(5-fluoro-2-pyrimidinyl)oxy]-2-[4-(trifluoromethyl)-1H-pyrazol-1-yl]benzonitrile] | 98 | 100 | 100 | 100 | 100 | 95 | 100 | 100 | 100 | 100 | 98 | 100 | 100 | 100 | 100 | 95 | 98 | 100 | 100 | 100 | Plant response rating, Pigweed ([5]; 16 g ai/ha): 100; Plant response rating, Pigweed ([5]; 31 g ai/ha): 100; Plant response rating, Pigweed ([5]; 62 g ai/ha): 100; Plant response rating, Pigweed ([5]; 125 g ai/ha): 100; Plant response rating, Pigweed ([5]; 250 g ai/ha): 100
